Laboratory results taken from US8389573B2, “Glycyrrhetinic acid derivatives” (Wellington Laboratories Inc., priority 2006, dated 2013).

How the values were obtained:
[1] = biological target: T1, PPARγ-coactivator interactions (Homo sapiens, UniProt P37231); test: Mammalian two-hybrid assay (VP-PPARγ, GAL4-coactivator) in SW480 cells; assay type: cell-based
T1 construct: expressed in transfected cells; host or cells: SW480 cells, transient transfection (LipofectAMINE)
T1 sequence (P37231 238-503 limits assumed): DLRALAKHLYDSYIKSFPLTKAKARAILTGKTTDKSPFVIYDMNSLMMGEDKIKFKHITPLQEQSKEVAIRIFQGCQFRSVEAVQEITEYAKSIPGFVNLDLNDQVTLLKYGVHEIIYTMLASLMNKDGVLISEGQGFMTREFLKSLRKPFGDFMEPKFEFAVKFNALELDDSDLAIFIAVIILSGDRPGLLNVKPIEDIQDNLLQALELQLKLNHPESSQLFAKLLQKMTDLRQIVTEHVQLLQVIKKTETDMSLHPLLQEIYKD
Procedure: SW480 and HT29 cell lines were plated in 12-well plates at 1×10^5 cells/well in DMEM/F-12 media supplemented with 2.5% charcoal-stripped fetal bovine serum. After growth for 16 h, various amounts of DNA, i.e. Gal4Luc (0.4 μg), β-gal (0.04 μg), VP-PPARγ (0.04 μg), pMSRC1 (0.04 μg), pMSRC2 (0.04 μg), pMSRC3 (0.04 μg), pMPGC-1 (0.04 μg), pMDRIP205 (0.04 μg), and pMCARM-1 (0.04 μg) were transfected by LipofectAMINE (Invitrogen) according to the manufacturer's protocol. After 5 h of transfection, the transfection mix was replaced with complete media containing either vehicle (DMSO) or the indicated ligand for 20-22 h. Cells were then lysed with […] of 1× reporter lysis buffer, and 30 μl of cell extract was used for luciferase and β-galactosidase assays. Lumicount was used to quantitate luciferase and β-galactosidase activities, and the luciferase activities were normalized to β-galactosidase activity.

[2] = system: HT-29 cells; test: Western blot analysis in HT-29 cells; assay type: cell-based, human
Procedure: SW-480 and HT-29 (3×10^5) cells were seeded in six-well plates in DMEM/Ham's F-12 media containing 2.5% charcoal-stripped FBS for 24 h and then treated with either the vehicle (DMSO) or the indicated compounds. Whole-cell lysates were obtained using high-salt buffer [50 mM HEPES, 500 mM NaCl, 1.5 mM MgCl2, 1 mM EGTA, 10% glycerol, and 1% Triton X-100, pH 7.5, and 5 μl/ml Protease Inhibitor Cocktail (Sigma-Aldrich)]. Protein samples were incubated at 100° C. for 2 min, separated on 10% SDS-PAGE at 120 V for 3 to 4 h in 1× running buffer (25 mM Tris-base, 192 mM glycine, and 0.1% SDS, pH 8.3), and transferred to polyvinylidene difluoride membrane (PVDF; Bio-Rad, Hercules, Calif.) at […] for 16 h at 4° C. in 1× transfer buffer (48 mM Tris-HCl, 39 mM glycine, and 0.025% SDS). The PVDF membrane was blocked in 5% TBST-Blotto (10 mM Tris-HCl, 150 mM NaCl, pH 8.0, 0.05% Triton X-100, and 5% nonfat dry milk) with gentle shaking for 30 min and was incubated in fresh 5% TBST-Blotto with 1:1000 (for caveolin-1, p27, p21, cyclin D1, Grp78), 1:500 (for KLF4, NAG-1), 1:250 (for PARP), and 1:5000 (for β-actin) primary antibody overnight with gentle shaking at 4° C. After washing with TBST for 10 min, the PVDF membrane was incubated with secondary antibody (1:5000) in 5% TBST-Blotto for 90 min. The membrane was washed with TBST for 10 min, incubated with 10 ml of chemiluminescence substrate (PerkinElmer) for 1.0 min, and exposed to Kodak X-OMAT AR autoradiography film (Eastman Kodak, Rochester, N.Y.).

[3] = system: PPARγ; test: PPARγ-GAL4/GAL4-Luc or PPRE3-Luc transactivation in LNCaP cells; assay type: cell-based
From the text: Transfections: The Gal4 reporter construct containing 5× Gal4 response elements (pGal4) was kindly provided by Dr. Marty Mayo (University of North Carolina, Chapel Hill, N.C.). The Gal4 DBD-PPARγ construct was a gift of Dr. Jennifer L. Oberfield (Glaxo Wellcome Research and Development, Research Triangle Park, N.C.). The PPRE-luc construct contains three tandem PPREs with a minimal TATA sequence linked to the luciferase gene in pGL2. The AR-luc construct containing the −5400 to +580 region of the androgen receptor promoter was provided by Dr. Donald J. Tindall (Mayo Clinic, Rochester, Minn.), and the PSA-luc construct containing the 5.8-kilobase region of the PSA promoter was provided by Dr. Hong-Wu Cheng (University of California, Davis, Calif.). LNCaP cells (1×10^5) were seeded in 12-well plates in DMEM/Ham's F-12 media supplemented with 2.5% charcoal-stripped FBS and grown overnight. Transient transfections were performed using Lipofectamine reagent (Invitrogen) according to the protocol provided by the manufacturer. Transfection studies were performed using 0.4 μg of Gal4Luc, 0.04 μg of β-galactosidase, 0.04 μg of Gal4 DBD-PPARγ, 0.4 μg of AR-luc, and 0.3 μg of PSA-luc. Six hr after transfection, the transfection mix was replaced with complete media containing either vehicle (DMSO) or the indicated ligand for 20 to 22 hr. Cells were then lysed with 100 μl of 1× reporter lysis buffer, and 30 μl of cell extract was used for luciferase and β-galactosidase assays. A Lumicount luminometer (PerkinElmer Life and Analytical Sciences) was used to quantify luciferase and β-galactosidase activities, and the luciferase activities were normalized to β-galactosidase activity.

## COC(=O)[C@@]1(C)CC[C@]2(C)CC[C@]3(C)C(=CC(=O)[C@@H]4[C@@]5(C)C=C(C#N)C(=O)C(C)(C)[C@@H]5CC[C@]43C)[C@@H]2C1 [β-CDODA-Me, Methyl 2-cyano-3,11-dioxo-18β-oleana-1,12-dien-30-oate]
[1]
  PPARγ interaction with coactivators PGC-1 and SRC-1: induced transactivation
  ligand-induced interactions of SRC-2, SRC-3, CARM1, TRAP220 and SMRT with PPARγ: not observed
[2]; HT-29, 24 hours
  NAG-1 and KLF4 proteins: induction of NAG-1 and KLF4 proteins
  PARP cleavage: induction of PARP cleavage
[2]; HT-29, 24 hours, higher (5 μM) concentration
  NAG-1 protein levels: decreased
[2]; HT-29, 24 hr
  induction of NAG-1 and PARP cleavage after cotreatment with T007: not affected
[2]; HT-29, 24 hr, 10 μM T007
  KLF-4 induction after cotreatment with T007: blocks this induction response
[2]; HT-29, 3 days
  caveolin-1: induction of caveolin-1
[2]; HT-29, 96 hr, 10 μM T007
  induction of caveolin-1 after cotreatment with T007: inhibited
[3]
  induced transactivation after cotreatment with 10 μM T007: significant inhibition of induced transactivation
[3]; 1-5 μM
  PPARγ-dependent transactivation (luciferase activity): significantly induced luciferase activity
